Source: patent publication US8802664B2 (Bioproject, priority 2010, dated 2014)
Structures can show the parent of a compound that is named as a salt.

Point of comparison: `CN1CCC(NC(c2cccc(C#CCCCCN)c2)c2nc3ccccc3s2)CC1` (centres unmarked) (as salt: oxalate) [Example 420, {[3-(6-aminohex-1-ynyl)phenyl]benzothiazol-2-yl-methyl}(1-methylpiperidin-4-yl)amine], melting point 80 °C. Against it:
- CN1CCC(NC(c2cccc(I)c2)c2nc3ccccc3s2)CC1 (centres unmarked) (as salt: oxalate) [Example 48, [benzothiazol-2-yl(3-iodophenyl)methyl](1-methylpiperidin-4-yl)amine] — higher, 188 to 195 °C
- CN1CCC(OC(c2cccc(OCC3CCCNC3)c2)c2nc3ccccc3s2)CC1 (centres unmarked) (as salt: oxalate) [Example 378, 2-{(1-methylpiperidin-4-yloxy)[3-(piperidin-3-ylmethoxy)phenyl]methyl}benzothiazole] — lower, 55 °C
- CN1CCC(OC(c2cccc(OC3CC4CNCC4C3)c2)c2nc3ccccc3s2)CC1 (centres unmarked) (as salt: oxalate) [Example 466] — lower, 70 °C
- CC(=O)OC1CCN(c2cccc(C(OC3CCN(C)CC3)c3nc4ccccc4s3)c2)CC1 (centres unmarked) (as salt: oxalate) [Example 413, acetic acid 1-{3-[benzothiazol-2-yl(1-methylpiperidin-4-yloxy)methyl]phenyl}piperidin-4-yl ester] — lower, 74 °C
- CN1CCC(NC(c2cccc(SCc3ccccc3)c2)c2nc3ccccc3s2)CC1 (centres unmarked) (as salt: oxalate) [Example 107, [benzothiazol-2-yl(3-benzylsulfanylphenyl)methyl](1-methylpiperidin-4-yl)amine] — lower, 50 °C
- CN1CCC(OC(c2cccc(OCc3ccncc3)c2)c2nc3ccccc3s2)CC1 (centres unmarked) (as salt: oxalate) [Example 265, 2-{(1-methylpiperidin-4-yloxy)[3-(pyridin-4-ylmethoxy)phenyl]methyl}benzothiazole] — higher, 101 °C
- CN1CCC(NC(c2cccc(OCCCC3(C)OCCO3)c2)c2nc3ccccc3[nH]2)CC1 (centres unmarked) (as salt: oxalate) [Example 174, ((1H-benzimidazol-2-yl)-{3-[3-(2-methyl-[1,3]dioxolan-2-yl)-propoxy]phenyl}methyl)(1-methylpiperidin-4-yl)amine] — higher, 120 °C
- CN1CCC(OC(c2cccc(N3CCCC3CN)c2)c2nc3ccccc3s2)CC1 (centres unmarked) (as salt: oxalate) [Example 482] — higher, 145 °C
- CN1CCC(OC(c2cccc(OCc3cccc(F)c3F)c2)c2nc3ccccc3s2)CC1 (centres unmarked) (as salt: oxalate) [Example 161, 2-[[3-(2,3-difluorobenzyloxy)phenyl](1-methylpiperidin-4-yloxy)methyl]benzothiazole] — higher, 98 °C
- CN1CCC(OC(c2ccc(N)cc2)c2nc3ccccc3[nH]2)CC1 (centres unmarked) (as salt: hydrochloride) [Example 455, 4-[(1H-benzimidazol-2-yl)(1-methylpiperidin-4-yloxy)methyl]aniline] — higher, 185 °C
- CN1CCC(OC(c2nc3ccccc3s2)c2ccccc2Cl)CC1 (centres unmarked) (as salt: oxalate) [Example 281, 2-[(2-Chlorophenyl)(1-methylpiperidin-4-yloxy)methyl]benzothiazole] — higher, 163 °C
- CN1CCC(NC(c2cccc(OCC3CCCCC3)c2)c2nc3ccccc3s2)CC1 (centres unmarked) (as salt: oxalate) [Example 93, [benzothiazol-2-yl(3-cyclohexylmethoxyphenyl)methyl](1-methylpiperidin-4-yl)amine] — higher, 98 °C
- CN1CCC(OC(c2nc3ccccc3[nH]2)c2cc(C#CCCCN)ccc2F)CC1 (centres unmarked) (as salt: oxalate) [Example 442] — higher, 139 °C
- CN1CCC(OC(c2nc3ccccc3[nH]2)c2cc(O)ccc2F)CC1 (centres unmarked) (as salt: oxalate) [Example 487] — higher, 135 °C
- CN1CCC(OC(c2cccc(C#CCNC(=N)N)c2)c2nc3ccccc3s2)CC1 (centres unmarked) (as salt: hydrochloride) [Example 373, N-(3-{3-[benzothiazol-2-yl(1-methylpiperidin-4-yloxy)methyl]phenyl}prop-2-ynyl)guanidine] — higher, 125 °C
- CN1CCC(OC(c2cccc(OCCCF)c2)c2nc3ccccc3s2)CC1 (centres unmarked) (as salt: oxalate) [Example 176, 2-[[3-(3-fluoropropoxy)phenyl](1-methylpiperidin-4-yloxy)methyl]benzothiazole] — lower, 72 °C
- CN1CCC(OC(c2cccc(-c3ccc(Cl)c(Cl)c3)c2)c2nc3ccccc3[nH]2)CC1 (centres unmarked) (as salt: oxalate) [Example 122, 2-[(3′,4′-dichlorobiphenyl-3-yl)(1-methylpiperidin-4-yloxy)methyl]-1H-benzimidazole] — higher, 150 °C
- CN1CCC(OC(c2cccc(C#CCCCN)c2)c2nc3cc(F)ccc3[nH]2)CC1 (centres unmarked) (as salt: oxalate) [Example 438, 5-{3-[(5-fluoro-1H-benzimidazol-2-yl)(1-methylpiperidin-4-yloxy)methyl]phenyl}pent-4-ynylamine] — higher, 150 °C
- CN1CCC(NC(c2cccc(OCc3cc(F)ccc3F)c2)c2nc3ccccc3[nH]2)CC1 (centres unmarked) (as salt: oxalate) [Example 149, {(1H-benzimidazol-2-yl)[3-(2,5-difluoro-benzyloxy)phenyl]methyl}(1-methylpiperidin-4-yl)amine] — higher, 159 °C
- CN1CCC(OC(c2cccc(OCC3CCNCC3)c2)c2nc3ccccc3s2)CC1 (centres unmarked) (as salt: oxalate) [Example 377, 2-{(1-methylpiperidin-4-yloxy)[3-(piperidin-4-ylmethoxy)phenyl]methyl}benzothiazole] — higher, 90 °C
- CN1CCC(OC(c2cccc(OCCCN3CCN(C(=O)OC(C)(C)C)CC3)c2)c2nc3ccccc3[nH]2)CC1 (centres unmarked) (as salt: oxalate) [Example 360, 4-(3-{3-[(1H-benzimidazol-2-yl)(1-methylpiperidin-4-yloxy)methyl]phenoxy}propyl)piperazine-1-carboxylic acid tert-butyl ester] — higher, 140 °C
- CN1CCC(OC(c2cccc(N3CCC(N)C3)c2)c2nc3ccccc3s2)CC1 (centres unmarked) (as salt: oxalate) [Example 429, 1-{3-[benzothiazol-2-yl(1-methylpiperidin-4-yloxy)methyl]phenyl}pyrrolidin-3-ylamine] — higher, 137 °C
- CN1CCC(OC(c2cccc(-c3ccccc3CO)c2)c2nc3ccccc3s2)CC1 (centres unmarked) (as salt: oxalate) [Example 127, {3′-[benzothiazol-2-yl(1-methylpiperidin-4-yloxy)methyl]biphenyl-2-yl}methanol] — higher, 206 to 207 °C
- CN1CCC(OC(c2cccc(N3CCC(O)C3)c2)c2nc3ccccc3s2)CC1 (centres unmarked) (as salt: oxalate) [Example 406, 1-{3-[benzothiazol-2-yl(1-methylpiperidin-4-yloxy)methyl]phenyl}pyrrolidin-3-ol] — higher, 103 °C
- CN1CCC(OC(c2nc3ccccc3o2)c2cc(OC(F)(F)F)ccc2F)CC1 (centres unmarked) (as salt: oxalate) [Example 525, 2-[(2-fluoro-5-trifluoromethoxyphenyl)(1-methylpiperidin-4-yloxy)methyl]benzoxazole] — higher, 103 °C
- CN1CCC(OC(c2cccc(OCCN3CCN(C(=O)OC(C)(C)C)CC3)c2)c2nc3ccccc3s2)CC1 (centres unmarked) (as salt: oxalate) [Example 329, 4-(2-{3-[benzothiazol-2-yl(1-methylpiperidin-4-yloxy)methyl]phenoxy}ethyl)piperazine-1-carboxylic acid tert-butyl ester] — higher, 90 °C
- COc1ccc(F)c(C(OC2CCN(C)CC2)c2nc3ccccc3[nH]2)c1 (centres unmarked) (as salt: oxalate) [Example 486] — higher, 105 °C
- CN1CCC(OC(c2cccc(CCCCNC(=N)N)c2)c2nc3ccccc3s2)CC1 (centres unmarked) (as salt: hydrochloride) [Example 374, N-(4-{3-[benzothiazol-2-yl(1-methylpiperidin-4-yloxy)methyl]phenyl}butyl)guanidine] — higher, 120 °C
- CN1CCC(OC(c2cccc(SCCCCCCO)c2)c2nc3ccccc3s2)CC1 (centres unmarked) (as salt: oxalate) [Example 292, 6-{3-[benzothiazol-2-yl(1-methylpiperidin-4-yloxy)methyl]phenylsulfanyl}hexan-1-ol] — the same, 80 °C
- CCCCOc1cccc(C(OC2CCN(C)CC2)c2nc3ccccc3s2)c1 (centres unmarked) (as salt: oxalate) [Example 92, 2-[(3-butoxyphenyl)(1-methylpiperidin-4-yloxy)methyl]benzothiazole] — higher, 135 °C
- CN1CCC(OC(c2cccc(SCCN)c2)c2nc3cc(F)ccc3[nH]2)CC1 (centres unmarked) (as salt: oxalate) [Example 428, 2-{3-[(5-fluoro-1H-benzimidazol-2-yl)(1-methylpiperidin-4-yloxy)methyl]phenylsulfanyl}ethylamine] — higher, 85 °C
- Cc1ccc(C(OC2CCN(C)CC2)c2nc3ccccc3[nH]2)c(Cl)c1 (centres unmarked) (as salt: oxalate) [Example 213, 2-[(2-chloro-4-methylphenyl)(1-methylpiperidin-4-yloxy)methyl]-1H-benzimidazole] — higher, 96 °C
- COC(=O)c1cccc(C(OC2CCN(C)CC2)c2nc3ccccc3s2)c1 (centres unmarked) (as salt: oxalate) [Example 199, 3-[benzothiazol-2-yl(1-methylpiperidin-4-yloxy)methyl]benzoic acid methyl ester] — higher, 93 °C
- CN1CCC(NC(c2cccc(OCc3cccc(F)c3)c2)c2nc3ccccc3[nH]2)CC1 (centres unmarked) (as salt: oxalate) [Example 105, {(1H-benzimidazol-2-yl)[3-(3-fluorobenzyloxy)phenyl]methyl}(1-methylpiperidin-4-yl)amine] — higher, 116 °C
- CCN1CCC(OC(c2cccc(OCCN)c2)c2nc3ccccc3s2)CC1 (centres unmarked) (as salt: oxalate) [Example 290, 2-{3-[benzothiazol-2-yl(1-ethyl-piperidin-4-yloxy)methyl]phenoxy}ethylamine] — higher, 112 °C
- Cc1ccccc1COc1cccc(C(NC2CCN(C)CC2)c2nc3ccccc3[nH]2)c1 (centres unmarked) (as salt: oxalate) [Example 129, {(1H-benzimidazol-2-yl)[3-(2-methylbenzyloxy)phenyl]methyl}(1-methylpiperidin-4-yl)amine] — higher, 121 °C
- CN1CCC(OC(c2cccc(C=CCCCO)c2)c2nc3ccccc3[nH]2)CC1 (centres unmarked) (as salt: oxalate) [Example 389, 5-{3-[(1H-benzimidazol-2-yl)(1-methylpiperidin-4-yloxy)methyl]phenyl}pent-4-en-1-ol] — higher, 125 °C
